This note sets out measurements from patent US20100261796A1, “Use of Novel Compounds for IBD Treatment” (Ferring B.V., priority 2005, published 2010).

Each structure is given as a SMILES string.

The test system of one assay is TNBS-induced colitis. Nature of the assay: TNBS colitis induction model. The class given is in vivo, C57Bl/6 mice. On the procedure: Animals were housed ten per cage and had free access to standard mouse chow and tap water. For colitis induction, C57Bl/6 mice were anesthetized for 90-120 minutes and received an intra-rectal administration of TNBS (40 μL, 150 mg/kg; provided by Sigma-Aldrich, FR) dissolved in a 1:1 mixture of 0.9% NaCl with 100% ethanol. Control mice received a 1:1 mixture of 0.9% NaCl with 100% ethanol or a saline solution using the same technique. Animals were sacrificed 5 days after TNBS administration. The anti-inflammatory effects of compound 17 were tested by administering the compound once daily by subcutaneous injection, starting one day before colitis induction. Macroscopic, histology and biologic assessments of colitis were performed blindly by two investigators.
The colon of each mouse was examined under a dissecting microscope (magnification, ×5) to evaluate the macroscopic lesions according to the established so-called Wallace criteria. The Wallace score rates macroscopic lesions on a scale from 0 to 10 based on features reflecting inflammation, such as hyperemia, thickening of the bowel, and extent of ulceration (Wallace, J. L. et al. Gastroenterology 96(1):29-36 (1989)). A colon specimen located 2 cm above the anal canal was cut into three parts, one of which was fixed in 4% paraformaldehyde and embedded in paraffin. Sections stained with May-Grunwald-Giemsa were examined blindly by two investigators and scored according to the so-called Ameho criteria (Ameho, C. K. et al. Gut 41(4):487-493 (1997)). This grading on a scale from 0 to 6 takes into account the degree of inflammation infiltrate, the presence of erosion, ulceration, or necrosis, and the depth and surface extension of lesions.
Mice receiving TNBS injections had severe lesions five days after colitis induction, showing necrosis of the colon and leading to mortality in 70% of the mice. TNBS-induced colitis was characterized by hyperemia and extensive area of ulceration. These lesions were characterized by neutrophilic infiltration extending to the mucosa deep into the muscular layer. […]

Another assay has as its system DSS-induced colitis. In words: Dextran sulfate sodium (DSS) colitis induction model. The class given is in vivo, mice. Particulars: preventive treatment, 10^−1 mg/kg/d, 5% DSS for seven days. The protocol:
Mice were fed 5% DSS (molecular weight 30-40 kDa) for seven days. DSS was dissolved in sterile distilled water and given ad libitum throughout the experiment. Stool consistency, occult blood or the presence of macroscopic rectal bleeding gross were determined daily and blindly by two experiment investigators, as described previously (Hartmann et al., J Pharmacol Exp Ther., 292(1):22-30 (2000)). […] Bleeding was scored 0 point for no blood in hemoccult, 2 points for positive hemoccult, and 4 points for gross bleeding from the rectum. These scores were added, resulting in a total clinical score ranging from 0 (healthy) to 8 (maximal activity of colitis). […] For cell infiltration of inflammatory cells, rare inflammatory cells in the lamina propria were counted as 0; increased numbers of inflammatory cells, including neutrophils in the lamina propria as 1; confluence of inflammatory cells, extending into the submucosa as 2; and a score of 3 was given for transmural extension of the inflammatory cell infiltrate. For epithelial damage, absence of mucosal damage was counted as 0, discrete focal lymphoepithelial lesions were counted as 1, mucosal erosion/ulceration was counted as 2, and a score of 3 was given for extensive mucosal damage and extension through deeper structures of the bowel wall. […]

For the molecule `NC(=O)CCCN(CCCC1CCCCC1)C(=O)Nc1ccccc1` [Compound 17, 4-[1-(3-cyclohexylpropyl)-3-phenylureido]butyramide], the “Ameho score (histology, scale 0 to 6)” value in the assay with TNBS-induced colitis (10^−1 mg/kg/d subcutaneously once daily, starting one day before colitis induction, five days after TNBS administration, untreated TNBS mice 5.3±0.15) was 3.9±0.62. Further, in the assay with TNBS-induced colitis (10^−1 mg/kg/d subcutaneously once daily, starting one day before colitis induction, five days after TNBS administration, untreated TNBS mice 7.0±0.37), the “Wallace score (macroscopic lesions, scale 0 to 10)” value stood at 3.8±0.89. Moreover, in the assay on TNBS-induced colitis (10^−1 mg/kg/d subcutaneously, TNBS-induced colitis, mortality in 70% of untreated TNBS mice), the mortality rates result is on record as “not associated with a significant improvement of mortality rates”. Further, the “scores for clinical parameters (stool consistency + bleeding, 0 to 8)” value in the assay on DSS-induced colitis (untreated 3.7±0.14, P=0.003) is recorded as 2.8±0.13. The “histologic score (0 to 6)” value in the assay with DSS-induced colitis (untreated 5.8±0.13, P=0.001) was 3.9±0.39.
